Reference: publication PMC3566858 (Beilstein Journal of Organic Chemistry, 2013)
Marks after values point to notes of the source that are not given here.

Tests used:
[1] = tested on: T. cruzi parasites in J774 macrophage host cells; experiment: Minimum trypanocidal concentration (MTC) assay; type: cell-based, Trypanosoma cruzi
[2] = tested on: T. cruzi parasites in C2C12 host cells; experiment: High-content imaging-based screening (HCS) assay; type: cell-based; conditions: Trypanosoma cruzi; reduces parasite load in C2C12 cells by 90% relative to untreated controls; read-out: T. cruzi growth inhibition HCS EC90
cruzain = cruzain (Trypanosoma cruzi, UniProt P25779); experiment: biochemical; conditions: for IC50: kinact/Ki, read-out: cruzain activity (n.a. = not active)
Sequence of cruzain (P25779 123-337 limits assumed): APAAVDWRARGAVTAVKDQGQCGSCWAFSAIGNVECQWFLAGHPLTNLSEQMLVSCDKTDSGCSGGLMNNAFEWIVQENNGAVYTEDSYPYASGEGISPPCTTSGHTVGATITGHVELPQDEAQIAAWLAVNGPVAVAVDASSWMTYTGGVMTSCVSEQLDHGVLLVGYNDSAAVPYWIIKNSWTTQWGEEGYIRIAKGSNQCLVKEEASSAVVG

TcCYP51 = TcCYP51 (Trypanosoma cruzi, UniProt Q7Z1V1); experiment: biochemical; conditions: UV-vis binding assay; lower limit of KD ~5 nM; read-out: TcCYP51 activity in vitro KD
Sequence of TcCYP51 (Q7Z1V1 whole entry): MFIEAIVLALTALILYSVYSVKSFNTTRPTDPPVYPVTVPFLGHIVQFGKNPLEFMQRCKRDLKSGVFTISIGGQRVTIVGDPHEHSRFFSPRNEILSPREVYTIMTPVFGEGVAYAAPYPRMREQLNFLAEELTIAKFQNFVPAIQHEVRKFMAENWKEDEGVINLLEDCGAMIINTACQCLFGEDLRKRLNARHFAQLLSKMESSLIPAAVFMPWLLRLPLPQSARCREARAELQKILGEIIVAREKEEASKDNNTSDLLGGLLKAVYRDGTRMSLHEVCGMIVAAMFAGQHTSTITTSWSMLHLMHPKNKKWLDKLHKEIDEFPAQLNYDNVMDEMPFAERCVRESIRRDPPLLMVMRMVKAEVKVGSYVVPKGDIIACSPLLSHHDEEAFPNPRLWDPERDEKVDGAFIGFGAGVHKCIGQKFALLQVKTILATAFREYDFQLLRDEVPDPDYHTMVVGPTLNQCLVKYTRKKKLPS

[3] = tested on: TcCYP51 (ergosterol biosynthesis) in intracellular T. cruzi parasites; experiment: Ergosterol biosynthesis / sterol composition of intracellular T. cruzi by GC/MS; type: cell-based, Trypanosoma cruzi; design: key to TcCYP51 cellular activity (Y/N): Y: Compound affects ergosterol biosynthesis at indicated concentration as determined by GC/MS analysis; cellular activity (Y/N, conc.); conditions: for effect on sterol (lipid) composition of intracellular T. cruzi: concentrations below MTC
CYP1A2 = target: T1, CYP1A2 (Homo sapiens, UniProt P05177); experiment: Mammalian CYP inhibition panel, 1A2; type: in vitro ADME
T1 sequence (P05177 1-516): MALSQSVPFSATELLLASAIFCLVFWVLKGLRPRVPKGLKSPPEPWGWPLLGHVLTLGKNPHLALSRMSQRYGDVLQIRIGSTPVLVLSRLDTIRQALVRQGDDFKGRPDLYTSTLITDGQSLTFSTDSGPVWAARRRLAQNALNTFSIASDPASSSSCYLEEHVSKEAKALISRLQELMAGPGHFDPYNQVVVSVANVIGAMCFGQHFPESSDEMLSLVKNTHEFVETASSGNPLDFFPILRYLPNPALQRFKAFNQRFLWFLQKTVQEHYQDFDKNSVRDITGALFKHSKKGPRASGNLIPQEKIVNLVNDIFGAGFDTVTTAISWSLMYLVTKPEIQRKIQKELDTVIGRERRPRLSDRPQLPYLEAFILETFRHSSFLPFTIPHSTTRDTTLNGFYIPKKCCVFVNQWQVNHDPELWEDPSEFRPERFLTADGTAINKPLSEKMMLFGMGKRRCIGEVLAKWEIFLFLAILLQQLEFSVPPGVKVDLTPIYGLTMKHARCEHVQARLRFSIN

CYP2C9 = CYP2C9 (Homo sapiens, UniProt P11712); experiment: Mammalian CYP inhibition panel, 2C9; type: in vitro ADME
Sequence of CYP2C9 (P11712 whole entry): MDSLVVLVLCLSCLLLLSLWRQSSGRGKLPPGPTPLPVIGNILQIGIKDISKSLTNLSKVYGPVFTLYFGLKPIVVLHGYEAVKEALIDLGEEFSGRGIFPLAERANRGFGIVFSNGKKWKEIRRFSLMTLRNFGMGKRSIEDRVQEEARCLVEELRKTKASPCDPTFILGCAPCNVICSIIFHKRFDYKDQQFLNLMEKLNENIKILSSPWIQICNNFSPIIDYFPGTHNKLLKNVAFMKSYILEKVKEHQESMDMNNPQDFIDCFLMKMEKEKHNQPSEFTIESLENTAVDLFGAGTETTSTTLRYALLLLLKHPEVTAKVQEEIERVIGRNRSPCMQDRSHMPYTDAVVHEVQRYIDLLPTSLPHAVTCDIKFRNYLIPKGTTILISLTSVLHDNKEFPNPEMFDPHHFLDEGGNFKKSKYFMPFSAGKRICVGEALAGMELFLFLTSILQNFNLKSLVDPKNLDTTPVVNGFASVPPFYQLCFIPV

CYP2C19 [4] = target: T2, CYP2C19 (Homo sapiens, UniProt P33261); experiment: Mammalian CYP inhibition panel, 2C19; type: in vitro ADME
T2 sequence (P33261 whole entry): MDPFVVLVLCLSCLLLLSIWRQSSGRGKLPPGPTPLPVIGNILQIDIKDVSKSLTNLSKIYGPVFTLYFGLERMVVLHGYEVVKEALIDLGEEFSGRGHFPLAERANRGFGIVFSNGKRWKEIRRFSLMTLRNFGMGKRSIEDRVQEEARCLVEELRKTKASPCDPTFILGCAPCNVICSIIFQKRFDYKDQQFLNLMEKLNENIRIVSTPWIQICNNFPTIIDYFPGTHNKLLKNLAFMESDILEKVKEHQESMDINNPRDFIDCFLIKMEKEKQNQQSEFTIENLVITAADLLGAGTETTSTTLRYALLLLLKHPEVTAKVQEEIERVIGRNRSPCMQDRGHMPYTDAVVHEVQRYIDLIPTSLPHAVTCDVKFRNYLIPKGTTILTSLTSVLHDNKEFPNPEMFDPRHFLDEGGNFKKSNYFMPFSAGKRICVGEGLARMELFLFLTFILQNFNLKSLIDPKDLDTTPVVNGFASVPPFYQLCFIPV

CYP2D6 = CYP2D6 (Homo sapiens, UniProt P10635); experiment: Mammalian CYP inhibition panel, 2D6; type: in vitro ADME
Sequence of CYP2D6 (P10635 whole entry): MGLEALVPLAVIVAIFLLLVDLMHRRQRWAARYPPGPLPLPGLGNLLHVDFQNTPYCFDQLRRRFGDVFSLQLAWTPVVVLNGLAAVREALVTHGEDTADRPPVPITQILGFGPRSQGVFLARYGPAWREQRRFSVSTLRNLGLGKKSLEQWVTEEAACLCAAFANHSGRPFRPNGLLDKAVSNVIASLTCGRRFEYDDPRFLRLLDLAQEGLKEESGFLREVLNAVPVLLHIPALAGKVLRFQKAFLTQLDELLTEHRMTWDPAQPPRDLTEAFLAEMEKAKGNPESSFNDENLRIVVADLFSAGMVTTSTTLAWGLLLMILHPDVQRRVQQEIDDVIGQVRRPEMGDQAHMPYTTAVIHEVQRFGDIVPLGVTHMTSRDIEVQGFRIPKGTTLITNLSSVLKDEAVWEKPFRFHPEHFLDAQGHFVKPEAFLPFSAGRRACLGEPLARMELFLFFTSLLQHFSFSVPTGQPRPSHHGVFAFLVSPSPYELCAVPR

CYP3A4 [5] = target: T3, CYP3A4 (Homo sapiens, UniProt P08684); experiment: Mammalian CYP inhibition panel, 3A4; type: in vitro ADME
T3 sequence (P08684 whole entry): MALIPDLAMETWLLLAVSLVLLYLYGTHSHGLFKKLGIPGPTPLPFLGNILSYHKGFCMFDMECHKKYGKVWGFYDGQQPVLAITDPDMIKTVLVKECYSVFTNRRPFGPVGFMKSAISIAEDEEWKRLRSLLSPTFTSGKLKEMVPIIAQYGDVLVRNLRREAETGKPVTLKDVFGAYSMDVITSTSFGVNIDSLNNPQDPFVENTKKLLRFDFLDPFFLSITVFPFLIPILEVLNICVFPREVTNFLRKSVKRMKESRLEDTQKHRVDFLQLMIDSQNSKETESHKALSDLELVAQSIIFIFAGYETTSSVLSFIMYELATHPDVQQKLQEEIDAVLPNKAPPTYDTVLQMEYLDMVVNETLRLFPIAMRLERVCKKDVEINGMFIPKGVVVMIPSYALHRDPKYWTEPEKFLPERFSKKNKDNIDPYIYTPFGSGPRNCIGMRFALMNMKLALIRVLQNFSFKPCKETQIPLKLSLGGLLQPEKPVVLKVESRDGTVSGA

CYP2C19 [6] = target: T2, CYP2C19; experiment: CYP reversibility study (pre-incubation with or without NADPH), 2C19; type: in vitro ADME; conditions: for mechanism of CYP2C19 inhibition: NADPH-dependent shift of IC50
Method: (§1) CYP Inhibition and reversibility studies
(§2) Mammalian CYP inhibition values and reversibility studies were conducted by WuXi AppTech
(§3) (Tianjin, China 300457) according to standard protocols. […]

CYP3A4 [7] = target: T3, CYP3A4; experiment: CYP reversibility study (pre-incubation with or without NADPH), 3A4; type: in vitro ADME; conditions: for mechanism of CYP3A4 inhibition: NADPH-dependent shift of IC50
Method: Given the similar IC50 values for 1 and 4 against CYP3A4, we were curious to determine whether 4 is an irreversible inhibitor of this enzyme, as is the case for 1 [30].
as §1, §2, §3

[8] = target: T4, ≈35 kDa host-cell protein (cathepsin B) (Mus musculus, UniProt P10605); experiment: Competitive labeling of host cell (C2C12) proteins with probe 9; type: cell-based; conditions: C2C12 cells
T4 construct: endogenous in cells; host or cells: C2C12 mouse myoblasts
T4 sequence (P10605 80-333 limits assumed): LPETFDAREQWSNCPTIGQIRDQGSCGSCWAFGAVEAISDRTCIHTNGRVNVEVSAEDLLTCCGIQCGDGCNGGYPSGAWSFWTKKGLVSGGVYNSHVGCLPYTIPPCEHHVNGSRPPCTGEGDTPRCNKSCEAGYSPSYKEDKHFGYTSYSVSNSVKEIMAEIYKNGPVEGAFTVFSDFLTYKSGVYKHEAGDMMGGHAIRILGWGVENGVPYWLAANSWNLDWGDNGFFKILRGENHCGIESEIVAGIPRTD
Method: The discovery of a potential mammalian off-target of probe 9 (and presumably also of 1) was of considerable interest, so we explored this finding further. To determine if this protein was also a target of 1 and 4, we conducted competition experiments in C2C12 cells. […]
Cellular labeling assay and “click” chemistry: C2C12 cells (1.5 × 10^6 cells) were pre-treated with competitor compounds in culture media (1 mL, DMEM with 10% FBS) for 1 hour at 37 °C.
Then additional competitor compound and 9 (2 µM) were added in culture media (1 mL), and the cells were incubated for an additional hour. The cells were then pelleted, washed with phosphate-buffered saline pH 7.4 (2 × 1 mL), and lysed with 1% SDS in phosphate-buffered saline (400 µL). The denatured lysates were sonicated to reduce viscosity, centrifuged to give pellets of the insoluble material, and normalized for total protein content. The normalized lysates (22 µL, 3 mg/mL) were mixed with TAMRA azide 10 (0.5 µL, 5 mM), TCEP (0.5 µL, 50 mM, pH ~7.0), TBTA ligand in 1:4 DMSO/t-butyl alcohol (1.5 µL, 1 mM), and CuSO4 (0.5 µL, 50 mM).
Reactions were incubated at room temperature for one hour and then resolved by SDS-PAGE.
The resulting gel was scanned for fluorescence (Typhoon Imaging System, Molecular Dynamics) and coomassie stained. […]

CYP3A4 [9] = target: T3, CYP3A4; design: method as in PMID 11038163; conditions: cited from earlier work
P-glycoprotein (P-gp) = conditions: stated as known, no reference given; cited from earlier work
[10] = tested on: CYP1A2, CYP2C9, CYP2C19, CYP2D6, CYP3A4 (average over the panel of mammalian CYP enzymes); experiment: Mammalian CYP inhibition panel, average over panel; type: in vitro ADME; conditions: human; average of 1A2, 2C9, 2C19, 2D6, 3A4; read-out: average IC50 across the CYP panel
[11] = clears J774 host cells of parasites at day 40, following 28 days of treatment
[12] = pretreatment with 10 μM for one hour
[13] = affects ergosterol biosynthesis at 2.0 μM
[14] = pre-incubation at either 1 μM or 10 μM for one hour
[15] = affects ergosterol biosynthesis at 0.1 μM

| kinact/KI (cruzain) | Kd (TcCYP51) | IC50 (cruzain) | Structure (SMILES) | T. cruzi growth inhibition MTC [1, 11] | EC90 [2] | effect on sterol (lipid) composition of intracellular T. cruzi [3] | also measured |
| --- | --- | --- | --- | --- | --- | --- | --- |
| – | – | – | O=C(Cn1ccnc1[N+](=O)[O-])NCc1ccccc1 [BNZ, benzindazole, reference compound] | 10 µM | 7200 nM | – | – |
| 118000 M⁻¹ s⁻¹ | > 2000 nM | – | CN1CCN(C(=O)N[C@@H](Cc2ccccc2)C(=O)N[C@H](/C=C/S(=O)(=O)c2ccccc2)CCc2ccccc2)CC1 [Compound 1, reference compound] | 8 µM | 100 nM | little effect on sterol composition | TcCYP51 cellular activity (Y/N) ([3]; affects ergosterol biosynthesis at 1.6 μM): N (1.6 μM); IC50 (CYP1A2): 24000 nM; IC50 (CYP2C9): 32000 nM; IC50 (CYP2C19 [4]): 7600 nM; IC50 (CYP2D6): 26000 nM; IC50 (CYP3A4 [5]): 1700 nM; mechanism of CYP2C19 inhibition (CYP2C19 [6]): reversible inhibitors; IC50 (CYP2C19 [6]; pre-incubation with NADPH): 5540 nM; IC50 (CYP2C19 [6]; pre-incubation without NADPH): 8220 nM; mechanism of CYP3A4 inhibition (CYP3A4 [7]): irreversible inhibition; IC50 (CYP3A4 [7]; pre-incubation with NADPH): 5.9 nM; IC50 (CYP3A4 [7]; pre-incubation without NADPH): 1080 nM; competition for labeling of the ≈35 kDa band by probe 9 [8, 12]: successfully blocked labeling; type of CYP3A4 inhibition (CYP3A4 [9]): mechanism-based (irreversible) inhibitor of CYP3A4; P-glycoprotein (P-gp) substrate (P-glycoprotein (P-gp)): substrate of the drug transporter P-glycoprotein (P-gp) |
| 120000 M⁻¹ s⁻¹ | – | – | O=C(N[C@@H](Cc1ccccc1)C(=O)N[C@H](/C=C/S(=O)(=O)c1ccccc1)CCc1ccccc1)c1ccccn1 [Compound 2] | 10 µM | – | – | – |
| 16000 M⁻¹ s⁻¹ | > 2000 nM | – | Cc1ccc(C[C@H](NC(=O)c2ccccn2)C(=O)N[C@H](/C=C/S(=O)(=O)c2ccccc2)CCc2ccccc2)cc1.O=C(O)C(F)(F)F [Compound 3] | 8 µM | 1850 nM | no significant change in lipid composition | TcCYP51 cellular activity (Y/N) [3, 13]: N (2.0 μM); competition for labeling of the ≈35 kDa band by probe 9 [8, 12]: successfully blocked labeling |
| 67300 M⁻¹ s⁻¹ | ≤ 5 nM | – | Cc1ccc(C[C@H](NC(=O)c2ccncc2)C(=O)N[C@H](/C=C/S(=O)(=O)c2ccccc2)CCc2ccccc2)cc1 [Compound 4, N-[(2S)-1-[[(E,3S)-1-(benzenesulfonyl)-5-phenylpent-1-en-3-yl]amino]-3-(4-methylphenyl)-1-oxopropan-2-yl]pyridine-4-carboxamide] | 0.6 µM | 100 nM | effects very similar to those observed in posaconazole treated parasites | TcCYP51 cellular activity (Y/N) ([3]; affects ergosterol biosynthesis at 0.2 μM): Y (0.2 μM); fold more potent than 1 in the MTC assay ([1]; relative to compound 1): about 10 fold; IC50 (CYP1A2): 22000 nM; IC50 (CYP2C9): 5500 nM; IC50 (CYP2C19 [4]): 3400 nM; IC50 (CYP2D6): 2700 nM; IC50 (CYP3A4 [5]): 800 nM; mechanism of CYP2C19 inhibition (CYP2C19 [6]): reversible inhibitors; IC50 (CYP2C19 [6]; pre-incubation with NADPH): 300 nM; IC50 (CYP2C19 [6]; pre-incubation without NADPH): 170 nM; mechanism of CYP3A4 inhibition (CYP3A4 [7]): reversible inhibition; IC50 (CYP3A4 [7]; pre-incubation with NADPH): 117 nM; IC50 (CYP3A4 [7]; pre-incubation without NADPH): 46 nM; IC50 [10]: ~7000 nM; competition for labeling of the ≈35 kDa band by probe 9 [8, 12]: successfully blocked labeling |
| – | – | – | CC1CCC(C(=O)N[C@H](Cc2c[nH]c3ccccc23)C(=O)Nc2ccncc2)CC1 (stereo partly drawn) [Compound 5, reference compound] | ≤10^d μM | – | – | TcCYP51 cellular activity (Y/N) ([3]; affects ergosterol biosynthesis at 5.0 μM): Y (5.0 μM) |
| – | > 2000 nM | > 50000 nM | CN1CCN(C(=O)N[C@@H](Cc2ccccc2)C(=O)N[C@@H](CCc2ccccc2)CCS(=O)(=O)c2ccccc2)CC1 [Compound 6] | >10 µM | > 10000 nM | no significant change in lipid composition | TcCYP51 cellular activity (Y/N) [3, 13]: N (2.0 μM); competition for labeling of the ≈35 kDa band by probe 9 [8, 14]: did not compete for labeling by 9 |
| – | > 2000 nM | > 50000 nM | Cc1ccc(C[C@H](NC(=O)c2ccccn2)C(=O)N[C@@H](CCc2ccccc2)CCS(=O)(=O)c2ccccc2)cc1 [Compound 7] | >10 µM | > 10000 nM | no significant change in lipid composition | TcCYP51 cellular activity (Y/N) [3, 15]: N (0.1 μM) |
| – | ≤ 5 nM | > 50000 nM | Cc1ccc(C[C@H](NC(=O)c2ccncc2)C(=O)N[C@@H](CCc2ccccc2)CCS(=O)(=O)c2ccccc2)cc1 [Compound 8] | 0.25 µM | 110 nM | effects very similar to those observed in posaconazole treated parasites | TcCYP51 cellular activity (Y/N) [3, 15]: Y (0.1 μM); times more potent than 4 in the MTC assay ([1]; relative to compound 4): 2–4 times; competition for labeling of the ≈35 kDa band by probe 9 [8, 14]: did not compete for labeling by 9 |
| 81500 M⁻¹ s⁻¹ | – | – | C#CCN1CCN(C(=O)N[C@@H](Cc2ccccc2)C(=O)N[C@H](/C=C/S(=O)(=O)c2ccccc2)CCc2ccccc2)CC1 [Compound 9] | – | 17 nM | – | T. cruzi growth inhibition MTC ([1]; performed in BESM host cell rather than J774 cells): 5^e μM |
| – | 620 ± 260 nM | > 50000 nM | CNC(=O)[C@H](Cc1ccc(C)cc1)NC(=O)c1ccncc1 [Compound 12] | >10 µM | > 10000 nM | – | antitrypanosomal effect ([1]; highest concentration examined (10 μM)): no antitrypanosomal effect |
| – | 75 ± 26 nM | > 50000 nM | Cc1ccc(C[C@H](NC(=O)c2ccncc2)C(=O)N[C@H](C)c2ccccc2)cc1 [Compound 13] | – | 3900 nM | – | T. cruzi growth inhibition MTC ([1]; read at day 12 following 7 days treatment): 1^f μM |
| – | – | – | CC[C@@H]([C@H](C)O)n1ncn(-c2ccc(N3CCN(c4ccc(OC[C@@H]5CO[C@@](Cn6cncn6)(c6ccc(F)cc6F)C5)cc4)CC3)cc2)c1=O [POSA, posaconazole, reference compound] | 0.003 µM | 2700 nM | increase in the relative abundance of TcCYP51 substrates lanosterol (f) and eburicol (h) | TcCYP51 cellular activity (Y/N) [3, 15]: Y (0.1 μM) |
